*1 amine or outer side, *2 acyl side, *3 side chain or, on linkers, in order; H or OH if unused. Where a SMILES comes first, the peptide text is derived from it. Bridges are numbered along the chain shown (N, C = ends). [ ]: non-standard residue; d: D form. NMeNva(5-imidazol-1-yl) = CN[C@@H](CCCn1ccnc1)C(=O)O; Phe(4-guanidino) = N=C(N)Nc1ccc(C[C@H](N)C(=O)O)cc1; X23 = O=C([C@H](Cc1ccc(C(F)(F)F)nc1)N[*:1])[*:2]; Ala(pyrimidin-5-yl) = N[C@@H](Cc1cncnc1)C(=O)O; Phe(3-COOH) = N[C@@H](Cc1cccc(C(=O)O)c1)C(=O)O; NMePhe(3-Me) = CN[C@@H](Cc1cccc(C)c1)C(=O)O; X43 = CN([C@@H](Cc1cnccc1F)C(=O)[*:2])[*:1]; 3Pal(6-OMe) = COc1ccc(C[C@H](N)C(=O)O)cn1; X3 = CN([C@@H](Cc1cncnc1)C(=O)[*:2])[*:1]; X11 = CC(C)(F)CC[C@H](N[*:1])C(=O)[*:2]; X30 = O=C([C@H](Cc1ncccc1F)N[*:1])[*:2]; NMeAha = CN[C@@H](CCN=[N+]=[N-])C(=O)O; Phe(4-F) = N[C@@H](Cc1ccc(F)cc1)C(=O)O; X2 = O=C([C@H](Cc1ccccc1F)O[*:1])[*:2]; 1Nal = N[C@@H](Cc1cccc2ccccc12)C(=O)O; NHCH2CH2SCH2CO = O=C(CSCCN[*:1])[*:2]; X47 = O=C([C@H](Cc1ccoc1)N[*:1])[*:2]; Ala(cPent) = N[C@@H](CC1CCCC1)C(=O)O; Phe(2-F) = N[C@@H](Cc1ccccc1F)C(=O)O; NMe3Pal = CN[C@@H](Cc1cccnc1)C(=O)O; X1 = O=C(C12CC(CN[*:1])(C1)C2)[*:2]; Ala(cPr) = N[C@@H](CC1CC1)C(=O)O; NMeF = CN[C@@H](Cc1ccccc1)C(=O)O; PhLac = O=C(O)[C@@H](O)Cc1ccccc1; X9 = CCCC[C@H](O[*:1])C(=O)[*:2]; 3Pal = N[C@@H](Cc1cccnc1)C(=O)O; Ahp(2) = CCCCC[C@H](N)C(=O)O; Ala(CN) = N#CC[C@H](N)C(=O)O; Cba = N[C@@H](CC1CCC1)C(=O)O; hLeu = CC(C)CC[C@H](N)C(=O)O; αMeC = C[C@](N)(CS)C(=O)O; NMeA = CN[C@@H](C)C(=O)O; Nle = CCCC[C@H](N)C(=O)O; Nva = CCC[C@H](N)C(=O)O

The values below come from US20260001914A1, “MACROCYCLIC PEPTIDES TARGETING KRAS” (Merck Sharp & Dohme LLC, priority 2022, published 2026).

phosphorylation levels of ERK1/2 in AsPC-1 (homozygous KRAS-G12D) cells, sequence (P01116 1-186 G12D): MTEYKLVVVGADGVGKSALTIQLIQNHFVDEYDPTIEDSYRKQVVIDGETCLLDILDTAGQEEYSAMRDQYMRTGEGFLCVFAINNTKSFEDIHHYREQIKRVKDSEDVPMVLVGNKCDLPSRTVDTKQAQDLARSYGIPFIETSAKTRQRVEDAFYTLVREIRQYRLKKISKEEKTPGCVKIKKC

The experiment has as its target phosphorylation levels of ERK1/2 in AsPC-1 (homozygous KRAS-G12D) cells (Homo sapiens, UniProt P01116, G12D). Description: Cellular phospho-ERK assay in AsPC-1 cells (Alpha Screen), assay medium without fetal bovine serum.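 Further: signal taken as phospho-ERK over total ERK per well, both detected in one multiplex bead assay, EC50 from four-parameter logistic fit of dose-response curves.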 Type of experiment: cell-based. Conditions: phospho-ERK AlphaScreen, 18 h.
With `CCCCC[C@@H]1NC(=O)[C@H](Cc2ccoc2)NC(=O)[C@H](CC2CCC2)NC(=O)[C@H](Cc2cccnc2)NC(=O)[C@H](CCCNC(=N)N)NC(=O)[C@H](Cc2ccccc2)NC(=O)CSC[C@@](C)(C(N)=O)NC(=O)[C@H](Cc2ccccc2)N(C)C1=O` [compound 374, cyclo(F-R-3Pal-cBuA-Ala3Fur-Ahp-NMeF-aMeCl-ClAc)] ({CH2CO}-FR[3Pal][Cba][X47][Ahp(2)][NMeF][αMeC]-NH2; thioether N-8), the EC50 was over 50.8 µM.

On to `CCCC[C@@H]1NC(=O)[C@H](Cc2ccc(C(F)(F)F)nc2)NC(=O)[C@H](CCCn2ccnc2)N(C)C(=O)[C@H](Cc2ccccc2)OC(=O)C23CC(CNC(=O)[C@H](Cc4ccccc4)N(C)C(=O)[C@H](CCCC)NC(=O)[C@H](Cc4ccccc4F)NC1=O)(C2)C3` (single isomer, unassigned) [compound 218, cyclo(FLac-NMeNvalmid-4CF33Pal-Nle-Phe2F-Nle-NMeF-amBCP)], for which the EC50 was over 50.8 µM.

With `CC(C)CC[C@@H]1NC(=O)[C@H](Cc2ccccc2F)NC(=O)[C@H](CC2CCCC2)NC(=O)[C@H](Cc2cncnc2)NC(=O)[C@H](C)N(C)C(=O)[C@H](Cc2ccccc2)OC(=O)C23CC(CNC(=O)[C@H](Cc4cncnc4)N(C)C1=O)(C2)C3` [compound 335, cyclo(FLac-NMeA-PyrimAla-cPeA-Phe2F-hL-NMeAlaPyrim-amBCP)] (cyclo([Ala(cPent)][Phe(2-F)][hLeu][X3][X1][PhLac][NMeA][Ala(pyrimidin-5-yl)])), the 50% effective concentration (EC50) was determined as 5.27 µM. In other words, the single-digit micromolar range.

As for `CCCC[C@@H]1NC(=O)[C@H](Cc2cncnc2)NC(=O)[C@H](C)N(C)C(=O)[C@H](Cc2ccccc2)OC(=O)C23CC(CNC(=O)[C@H](Cc4ccccc4)N(C)C(=O)[C@H](CCCC)NC(=O)[C@H](Cc4ncccc4F)NC1=O)(C2)C3` [compound 229, cyclo(FLac-NMeA-PyrimAla-Nle-2Pal6F-Nle-NMeF-amBCP)] (cyclo([NMeA][Ala(pyrimidin-5-yl)][Nle][X30][Nle][NMeF][X1][PhLac])), the EC50 came to 48.7 µM.

As to `CCCC[C@@H]1NC(=O)[C@H](Cc2cncnc2)NC(=O)[C@H](CCCn2ccnc2)N(C)C(=O)[C@H](Cc2ccccc2)OC(=O)C23CC(CNC(=O)[C@H](Cc4ccccc4)N(C)C(=O)[C@H](CCCC)NC(=O)[C@H](Cc4ccccc4F)NC1=O)(C2)C3` (single isomer, unassigned) [compound 223, cyclo(FLac-NMeNvalmid-PyrimAla-Nle-Phe2F-Nle-NMeF-amBCP)], the EC50 was determined as 11.1 µM.

With `CC(C)CC[C@@H]1NC(=O)[C@H](Cc2ccccc2F)NC(=O)[C@H](CC2CC2)NC(=O)[C@H](Cc2cncnc2)NC(=O)[C@H](C)N(C)C(=O)[C@H](Cc2ccccc2)OC(=O)C23CC(CNC(=O)[C@H](Cc4cnccc4F)N(C)C1=O)(C2)C3` [compound 338, cyclo(FLac-NMeA-PyrimAla-cPrA-Phe2F-hL-NMe3Pal6F-amBCP)] (cyclo([Ala(cPr)][Phe(2-F)][hLeu][X43][X1][PhLac][NMeA][Ala(pyrimidin-5-yl)])), a half-maximal effect (EC50) was put at 1.86 µM. This EC50 lies about 6-fold lower than the previous one.

Regarding `CCCC[C@@H]1NC(=O)[C@H](Cc2cccnc2)NC(=O)[C@H](C)N(C)C(=O)[C@H](Cc2ccccc2)OC(=O)C23CC(CNC(=O)[C@H](Cc4cccnc4)N(C)C(=O)[C@H](CCC)NC(=O)[C@H](Cc4ccccc4F)NC1=O)(C2)C3` [compound 116, cyclo(FLac-NMeA-3Pal-Nle-Phe2F-Nva-NMe3Pal-amBCP)] (cyclo([3Pal][Nle][Phe(2-F)][Nva][NMe3Pal][X1][PhLac][NMeA])), the EC50 was over 50.8 µM.

`CCCC[C@@H]1NC(=O)[C@H](Cc2cccnc2)NC(=O)[C@H](C)N(C)C(=O)[C@H](Cc2ccc(F)cc2)NC(=O)C23CC(CNC(=O)[C@H](Cc4cccnc4)N(C)C(=O)[C@H](CCCC)NC(=O)[C@H](Cc4ccccc4F)NC1=O)(C2)C3` [compound 167, cyclo(Phe4F-NMeA-3Pal-Nle-Phe2F-Nle-NMe3Pal-amBCP)] (cyclo([3Pal][Nle][Phe(2-F)][Nle][NMe3Pal][X1][Phe(4-F)][NMeA])) had an EC50 of 42.8 µM.

The molecule `Cc1cccc(C[C@H]2C(=O)NCC34CC(C3)(C4)C(=O)O[C@@H](Cc3ccccc3)C(=O)N(C)[C@@H](C)C(=O)N[C@@H](Cc3cncnc3)C(=O)N[C@@H](CC3CC3)C(=O)N[C@@H](Cc3ccccc3F)C(=O)N[C@@H](CCC(C)(C)F)C(=O)N2C)c1` [compound 274, cyclo(FLac-NMeA-PyrimAla-cPrA-Phe2F-hL3F-NMePhe3Me-amBCP)] (cyclo([Ala(cPr)][Phe(2-F)][X11][NMePhe(3-Me)][X1][PhLac][NMeA][Ala(pyrimidin-5-yl)])) gave an EC50 of 0.604 µM. Against the preceding molecule, the EC50 is about 71-fold lower.

For `CCCCC[C@@H]1NC(=O)[C@H](Cc2ccc(OC)cc2)NC(=O)[C@H](CC2CCCC2)NC(=O)[C@H](Cc2ccc(NC(=N)N)cc2)NC(=O)[C@H](CCCNC(=N)N)NC(=O)[C@H](Cc2ccccc2)NC(=O)CSC[C@@](C)(C(N)=O)NC(=O)[C@H](Cc2ccccc2)N(C)C1=O` [compound 366, cyclo(F-R-Phe4Gn-cPeA-TyrOMe-Ahp-NMeF-aMeCl-ClAc)] ({CH2CO}-FR[Phe(4-guanidino)][Ala(cPent)]Y(Me)[Ahp(2)][NMeF][αMeC]-NH2; thioether N-8), a half-maximal effect (EC50) was put at 12.2 µM.

In turn, `CCCCC[C@@H]1NC(=O)[C@H](Cc2ccc(OC)cc2)NC(=O)[C@H](CC2CCC2)NC(=O)[C@H](Cc2ccc(N(C)C(=N)NC)cc2)NC(=O)[C@H](CCCNC(=N)N)NC(=O)[C@H](Cc2ccccc2)NC(=O)CSC[C@@](C)(C(N)=O)NC(=O)[C@H](Cc2ccccc2)N(C)C1=O` [compound 382, cyclo(F-R-Phe4GnMeMe-cBuA-TyrOMe-Ahp-NMeF-aMeCl-ClAc)] came in with an EC50 of over 50.8 µM.

`CCCC[C@@H]1NC(=O)[C@H](CCCCN)NC(=O)[C@H](CCCNC(=N)N)NC(=O)[C@H](Cc2cccc3ccccc23)NC(=O)CSCCNC(=O)[C@H](Cc2ccccc2)N(C)C(=O)[C@H](CCCC)NC(=O)[C@H](Cc2cccc(C(=O)O)c2)NC1=O` [compound 197, cyclo(1Nal-R-K-Nle-Phe3COOH-Nle-NMeF-Cysteamine)-ClAc] (cyclo([1Nal]RK[Nle][Phe(3-COOH)][Nle][NMeF][NHCH2CH2SCH2CO])) showed an EC50 of over 50.8 µM.

Regarding `CCCC[C@@H]1NC(=O)[C@H](Cc2cncnc2)NC(=O)[C@H](CCCn2ccnc2)N(C)C(=O)[C@H](Cc2ccccc2)OC(=O)C23CC(CNC(=O)[C@H](Cc4cccnc4)N(C)C(=O)[C@H](CCCC)NC(=O)[C@H](Cc4ccccc4F)OC1=O)(C2)C3` [compound 246, cyclo(FLac-NMeNvalmid-PyrimAla-Nle-F2FLac-Nle-NMe3Pal-amBCP)] (cyclo([NMe3Pal][X1][PhLac][NMeNva(5-imidazol-1-yl)][Ala(pyrimidin-5-yl)][Nle][X2][Nle])), the EC50 was over 50.8 µM.

`CCCC[C@@H]1NC(=O)[C@H](Cc2ccccc2F)NC(=O)C(CC2CC(F)(F)C2)NC(=O)[C@H](Cc2cncnc2)NC(=O)[C@H](C)N(C)C(=O)[C@H](Cc2ccccc2)OC(=O)C23CC(CNC(=O)[C@H](Cc4cccnc4)N(C)C1=O)(C2)C3` (single isomer, unassigned) [compound 122, cyclo(FLac-NMeA-PyrimAla-rF2Cba-Phe2F-Nle-NMe3Pal-amBCP)] came in with an EC50 of over 50.8 µM.

In turn, `CCCCC[C@@H]1NC(=O)[C@H](Cc2ccc(OC)cc2)NC(=O)[C@H](CC2CCC2)NC(=O)[C@H](Cc2ccc(OC)nc2)NC(=O)[C@H](CCCNC(=N)N)NC(=O)[C@H](Cc2ccccc2)NC(=O)CSC[C@@](C)(C(N)=O)NC(=O)[C@H](Cc2ccccc2)N(C)C1=O` [compound 365, cyclo(F-R-40Me3Pal-cBuA-TyrOMe-Ahp-NMeF-aMeCl-ClAc)] ({CH2CO}-FR[3Pal(6-OMe)][Cba]Y(Me)[Ahp(2)][NMeF][αMeC]-NH2; thioether N-8) yielded an EC50 of over 50.8 µM.

`CCCC[C@@H]1NC(=O)[C@H](Cc2ccc(C(F)(F)F)nc2)NC(=O)[C@H](CCN=[N+]=[N-])N(C)C(=O)[C@H](Cc2ccccc2)OC(=O)C23CC(CNC(=O)[C@H](Cc4cccnc4)N(C)C(=O)[C@H](CCCC)NC(=O)[C@H](Cc4ccccc4F)NC1=O)(C2)C3` [compound 241, cyclo(FLac-NMeDabN3-4CF33Pal-Nle-Phe2F-Nle-NMe3Pal-amBCP)] (cyclo([NMe3Pal][X1][PhLac][NMeAha][X23][Nle][Phe(2-F)][Nle])): the EC50 worked out at 6.12 µM.

Turning to `CCCC[C@@H]1NC(=O)[C@H](Cc2cccnc2)NC(=O)[C@H](CCCNC(=N)N)NC(=O)[C@H](Cc2ccccc2)NC(=O)CSC[C@@](C)(C(N)=O)NC(=O)[C@H](Cc2ccccc2)N(C)C(=O)[C@H](CCCC)NC(=O)[C@H](Cc2ccccc2F)NC1=O` [compound 160, cyclo(F-R-3Pal-Nle-Phe2F-Nle-NMeF-aMeCl-ClAc)] ({CH2CO}-FR[3Pal][Nle][Phe(2-F)][Nle][NMeF][αMeC]-NH2; thioether N-8), the EC50 is over 50.8 µM.

`CCCC[C@@H]1NC(=O)[C@H](Cc2ccccc2F)NC(=O)[C@H](CCCC)OC(=O)[C@H](Cc2cccnc2)NC(=O)[C@H](CCN=[N+]=[N-])N(C)C(=O)[C@H](Cc2ccccc2)NC(=O)C23CC(CNC(=O)[C@H](Cc4cccnc4)N(C)C1=O)(C2)C3` [compound 250, cyclo(F-NMeDabN3-3Pal-NleLac-Phe2F-Nle-NMe3Pal-amBCP)] (cyclo(F[NMeAha][3Pal][X9][Phe(2-F)][Nle][NMe3Pal][X1])): the EC50 was over 50.8 µM.

Regarding `CCCC[C@@H]1NC(=O)[C@H](Cc2cccnc2)NC(=O)[C@H](CC#N)NC(=O)[C@H](Cc2ccccc2)OC(=O)C23CC(CNC(=O)[C@H](Cc4cccnc4)N(C)C(=O)[C@H](CCCC)NC(=O)[C@H](Cc4ccccc4F)NC1=O)(C2)C3` [compound 252, cyclo(FLac-AlaCN-3Pal-Nle-Phe2F-Nle-NMe3Pal-amBCP)] (cyclo([3Pal][Nle][Phe(2-F)][Nle][NMe3Pal][X1][PhLac][Ala(CN)])), the EC50 is over 50.8 µM.

`CCCC[C@@H]1NC(=O)[C@H](Cc2cccnc2)NC(=O)[C@H](C)N(C)C(=O)[C@H](Cc2ccccc2)NC(=O)C23CC(CNC(=O)[C@H](Cc4cccnc4)N(C)C(=O)[C@H](CCCC)NC(=O)[C@H](Cc4ccccc4F)NC1=O)(C2)C3` [compound 162, cyclo(F-NMeA-3Pal-Nle-Phe2F-Nle-NMe3Pal-amBCP)] (cyclo(F[NMeA][3Pal][Nle][Phe(2-F)][Nle][NMe3Pal][X1])) displayed an EC50 of over 50.8 µM.
